According to patent US12492163B2, “9H-fluorene derivatives or their pharmaceutically acceptable salts” (priority 2020, dated 2025):

What was measured:
[1] = molecular target: horse plasma butyrylcholinesterase (eqBuChE) (Equus caballus (Horse), UniProt P81908); assay: Ellman's test, inhibition of horse plasma butyrylcholinesterase; type: biochemical
Method: (§1) The spectrophotometric Ellman's test [Ellman et al.] modified for assays in 96-well plates was used to test the activity. Reagents: 5,5′-dithiobis-(2-nitrobenzoic acid) (DTNB), eqBuChE and butyrylthiocholine iodide (BTC) were purchased from Sigma-Aldrich (Steinheim, Germany). hBuChE was from Vivonics (Bedford, MA, USA). The enzymes were prepared by dissolving in demineralized water to a concentration of 0.384 U/ml. Stock solutions of test compounds were prepared by dissolving in DMSO to a concentration of 0.0034 M. They were then diluted with water to obtain the appropriate concentrations in the wells. In the first step of the test, 25 μl of test compound (or DMSO/water mixture at the appropriate ratio for blank samples) was incubated in 0.1 M phosphate buffer (200 μl, pH=8.0) with DTNB (20 μl; 0.0025M) and with the appropriate enzyme (20 μl; eqBuChE or hBuChE) at 25° C. (animal enzyme) or 36° C. (human enzyme). After a 5 minutes incubation period, 20 μl of BTC solution (0.00375 M) was added. After another 5 minutes, the changes in absorbance of the solutions were measured at 412 nm using a multifunctional microplate reader (EnSpire Multimode; PerkinElmer; Waltham, MA, USA). All compounds were tested at a screening concentration of 10 μM (eqBuChE) or 1 μM (hBuChE). The percentage of enzyme inhibition was calculated from the equation 100-(S/B)×100, where S and B were the enzymatic activity in the test sample well and in the well without sample, respectively. […] All reactions were performed in triplicate. IC50 values were calculated using non-linear regression (GraphPad Prism 5 [GraphPad Software, San Diego, CA, USA 5.00]) for the percentage of enzyme inhibition against the inhibitor concentration used. Tacrine and donepezil were used as reference compounds.

mGAT1 = mGAT1 (Mus musculus (Mouse), UniProt P31648); assay: [3H]GABA uptake inhibition, mGAT1 in HEK293 cells; type: cell-based; conditions: for pIC50 (+/−SEM) mGAT1: GABA reuptake
Method: (§2) Exemplary compounds according to the invention were screened at the Ludwig-Maximilian University of Munich to determine the inhibitory ability towards four mouse GAT transporters (mGAT1-mGAT4). […] The biological material was stably transfected human embryonic kidney HEK293 cells, expressing genes to the appropriate transporters. The generated radioactivity was measured with a liquid scintillation counter. […] These determinations were made according to the procedure described in detail in A. Kragler, G. Höfner, K. T. Wanner, Novel parent structures for inhibitors of the murine GABA transporters mGAT3 and mGAT4, Eur. J. Pharmacol. 519 (2005) 43-47.

[2] = molecular target: human recombinant beta-secretase (hBACE1) (Homo sapiens (Human), UniProt P56817); assay: FRET assay, inhibition of human recombinant beta-secretase; type: biochemical; conditions: for IC50: read-out: hBACE-1 IC50; for inhibition at 50 µM: 50 μM inhibitor concentration, read-out: hBACE-1 % inh
Chain of human recombinant beta-secretase (hBACE1) (P56817 46-501): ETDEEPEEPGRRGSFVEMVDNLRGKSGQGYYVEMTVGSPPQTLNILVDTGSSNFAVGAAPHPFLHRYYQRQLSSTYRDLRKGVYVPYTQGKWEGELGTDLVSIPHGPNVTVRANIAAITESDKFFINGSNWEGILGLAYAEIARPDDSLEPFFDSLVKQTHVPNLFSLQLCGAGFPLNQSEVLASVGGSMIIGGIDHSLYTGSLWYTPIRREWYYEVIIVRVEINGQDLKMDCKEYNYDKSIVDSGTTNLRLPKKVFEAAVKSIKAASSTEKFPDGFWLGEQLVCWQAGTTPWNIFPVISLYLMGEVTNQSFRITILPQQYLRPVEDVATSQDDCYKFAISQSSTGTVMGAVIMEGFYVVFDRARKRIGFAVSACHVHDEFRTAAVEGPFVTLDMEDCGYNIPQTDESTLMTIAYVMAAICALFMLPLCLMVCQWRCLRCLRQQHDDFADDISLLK
Method: The FRET assay [Vassar, et al.] was used to test activity using 384-well black plates and a microplate reader (EnSpire Multimode; PerkinElmer; Waltham, MA, USA). The test was purchased from Life Technologies Polska Sp. z o.o. (Warsaw, Poland). […] Stock solutions of test compounds were prepared in DMSO and then further diluted with assay buffer (50 mM sodium acetate; pH 4.5) to the appropriate concentrations in the wells. In the first step of the test, 10 μl of the substrate (Rh-[…] quencher, based on the so-called Swedish APP mutation) was mixed with 10 μl of the test compound (or assay buffer; for blank sample). The enzyme reaction was initiated by adding 10 μl of enzyme (hBACE1, 1 U/ml). The reaction mixture was incubated at 25° C. for 60 minutes, then 10 μL of Stop solution (2.5 M sodium acetate) was added. After stopping the reaction, fluorescence was measured at 576 nm. The percentage of enzyme inhibition was calculated from the formula [1−(S60−S0)/(C60−C0)]×100, where S0 and S60 are the fluorescence of the test sample (containing the enzyme, substrate and test compound) at the start of the reaction and after 60 minutes, respectively, whereas C0 and C60 were analogous fluorescence intensities in the blank samples (containing enzyme, substrate and buffer). All test compounds were tested at a concentration of 50 μM in triplicate. […] A BACE1 IV inhibitor (Calbiochem, Merck; Nottingham, UK) [Stachel et al.] was used as a reference compound. […] IC50 values for all test compounds were calculated using non-linear regression (GraphPad Prism 5 [GraphPad Software, San Diego, CA, USA 5.00]) for the percentage of enzyme inhibition against the inhibitor concentration used.

mGAT4 = mGAT4 (Mus musculus (Mouse), UniProt P31650); assay: [3H]GABA uptake inhibition, mGAT4 in HEK293 cells; type: cell-based; conditions: for pIC50 (+/−SEM) mGAT4 / IC50: GABA reuptake; for percentage of [3H]GABA reuptake retained, mGAT4: inhibitor at 100 μM, remaining reuptake; for IC50: read-out: pIC50 (+/−SEM) mGAT4 (converted)
Chain of mGAT4 (P31650 whole entry): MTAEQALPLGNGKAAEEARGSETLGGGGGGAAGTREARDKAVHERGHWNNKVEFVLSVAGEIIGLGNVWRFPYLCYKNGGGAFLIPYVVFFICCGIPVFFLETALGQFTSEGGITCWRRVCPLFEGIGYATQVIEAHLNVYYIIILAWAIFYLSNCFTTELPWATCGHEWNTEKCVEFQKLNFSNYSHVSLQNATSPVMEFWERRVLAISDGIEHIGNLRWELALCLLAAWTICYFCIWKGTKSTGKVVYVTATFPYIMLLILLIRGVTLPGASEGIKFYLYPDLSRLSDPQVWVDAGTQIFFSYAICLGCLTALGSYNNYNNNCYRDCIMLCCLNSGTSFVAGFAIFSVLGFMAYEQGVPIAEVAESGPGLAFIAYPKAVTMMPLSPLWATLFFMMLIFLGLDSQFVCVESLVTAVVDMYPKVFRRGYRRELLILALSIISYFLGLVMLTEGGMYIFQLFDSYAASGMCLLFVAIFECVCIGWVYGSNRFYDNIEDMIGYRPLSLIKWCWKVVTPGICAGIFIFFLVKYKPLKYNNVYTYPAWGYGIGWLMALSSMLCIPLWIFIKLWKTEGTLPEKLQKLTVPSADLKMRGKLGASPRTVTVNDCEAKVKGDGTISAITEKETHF
Method: as §2

mGAT2 = mGAT2 (Mus musculus (Mouse), UniProt P31651); assay: [3H]GABA uptake inhibition, mGAT2 in HEK293 cells; type: cell-based
Chain of mGAT2 (P31651 whole entry): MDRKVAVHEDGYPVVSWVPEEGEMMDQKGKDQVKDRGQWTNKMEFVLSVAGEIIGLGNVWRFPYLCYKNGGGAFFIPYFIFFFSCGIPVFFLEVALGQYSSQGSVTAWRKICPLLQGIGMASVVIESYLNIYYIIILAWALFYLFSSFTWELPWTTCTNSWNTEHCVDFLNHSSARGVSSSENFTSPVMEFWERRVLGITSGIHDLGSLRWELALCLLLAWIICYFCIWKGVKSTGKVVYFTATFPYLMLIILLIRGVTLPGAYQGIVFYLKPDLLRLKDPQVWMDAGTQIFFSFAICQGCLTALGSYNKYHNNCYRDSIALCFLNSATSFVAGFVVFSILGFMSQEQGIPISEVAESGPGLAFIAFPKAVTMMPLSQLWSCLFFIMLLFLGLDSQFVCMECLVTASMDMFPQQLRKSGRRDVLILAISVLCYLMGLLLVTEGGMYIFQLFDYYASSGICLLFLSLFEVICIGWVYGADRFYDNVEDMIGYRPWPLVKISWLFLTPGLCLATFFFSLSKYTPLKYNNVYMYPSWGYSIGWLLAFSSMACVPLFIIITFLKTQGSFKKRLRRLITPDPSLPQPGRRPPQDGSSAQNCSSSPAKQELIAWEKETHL
Method: as §2

[3] = molecular target: human plasma butyrylcholinesterase (hBuChE) (Homo sapiens (Human), UniProt P06276); assay: Ellman's test, inhibition of human plasma butyrylcholinesterase; type: biochemical; conditions: for inhibition at 1 µM: 1 μM inhibitor concentration, read-out: hBuChE % inh
Chain of human plasma butyrylcholinesterase (hBuChE) (P06276 29-602): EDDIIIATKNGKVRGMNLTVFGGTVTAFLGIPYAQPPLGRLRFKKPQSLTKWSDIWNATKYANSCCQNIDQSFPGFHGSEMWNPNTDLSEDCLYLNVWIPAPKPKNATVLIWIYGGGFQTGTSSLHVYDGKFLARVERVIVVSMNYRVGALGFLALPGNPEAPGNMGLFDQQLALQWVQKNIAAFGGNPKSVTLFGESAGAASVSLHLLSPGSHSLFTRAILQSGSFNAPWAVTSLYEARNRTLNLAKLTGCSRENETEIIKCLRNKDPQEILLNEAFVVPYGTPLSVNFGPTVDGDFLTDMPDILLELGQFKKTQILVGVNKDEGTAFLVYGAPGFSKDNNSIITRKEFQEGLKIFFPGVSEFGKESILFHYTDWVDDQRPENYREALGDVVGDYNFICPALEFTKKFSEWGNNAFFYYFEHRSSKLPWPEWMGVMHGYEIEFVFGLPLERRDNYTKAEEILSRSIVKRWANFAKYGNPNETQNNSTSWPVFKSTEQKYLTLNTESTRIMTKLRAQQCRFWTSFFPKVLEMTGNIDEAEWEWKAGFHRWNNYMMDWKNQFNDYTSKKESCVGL
Method: as §1

[4] = molecular target: Recombinant human Aβ1-42 peptide (Homo sapiens (Human), UniProt P05067); assay: Thioflavin T test, antiaggregation activity against beta-amyloid; type: biochemical; conditions: 10 μM test compound, 1.5 μM Aβ1-42; read-out: inh. Aβ aggr. % inh
Chain of Recombinant human Aβ1-42 peptide (P05067 672-713): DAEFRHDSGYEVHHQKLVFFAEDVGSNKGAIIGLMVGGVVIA
Method: The thioflavin T test [Levine III] was used for the determinations. Recombinant human Aβ1-42 peptide (HFIP pretreated, Merck Millipore, Darmstadt, Germany) was dissolved in DMSO to form a 75 μM stock solution. The solution was further diluted in HEPES buffer (150 mM HEPES, pH 7.4, 150 mM NaCl) to a concentration of 7.5 μM. Then, the Aβ1-42 solution was added to the test compounds (black 96-well plates were used) and diluted with thioflavin T solution (10 μM final concentration). The final mixture contained 1.5 μM Aβ1-42, 10 μM test compound, and 3% of DMSO. Fluorescence was measured every 300 s (excitation wavelength was 440 nm, emission wavelength was 490 nm) with continuous mixing between measurements. A multifunction microplate reader (Synergy H4; BioTek Instruments, Inc., Winooski, VT, USA) was used to measure the fluorescence. Fluorescence started increasing after approximately 4 hours, plateaued after 20 hours and remained virtually unchanged for the next 28 hours of incubation. The plateau-phase fluorescence intensities (in the presence and absence of test compounds) were averaged and the mean fluorescence values for the respective wells at t=0 h were subtracted from them. […] IC50 values were calculated using non-linear regression (GraphPad Prism 5 [GraphPad Software, San Diego, CA, USA 5.00]) for the percentage of aggregation inhibition against the inhibitor concentration used.

mGAT3 = mGAT3 (Mus musculus (Mouse), UniProt P31649); assay: [3H]GABA uptake inhibition, mGAT3 in HEK293 cells; type: cell-based; conditions: for pIC50 (+/−SEM) mGAT3: GABA reuptake; for percentage of [3H]GABA reuptake retained, mGAT3: inhibitor at 100 μM, remaining reuptake
Chain of mGAT3 (P31649 whole entry): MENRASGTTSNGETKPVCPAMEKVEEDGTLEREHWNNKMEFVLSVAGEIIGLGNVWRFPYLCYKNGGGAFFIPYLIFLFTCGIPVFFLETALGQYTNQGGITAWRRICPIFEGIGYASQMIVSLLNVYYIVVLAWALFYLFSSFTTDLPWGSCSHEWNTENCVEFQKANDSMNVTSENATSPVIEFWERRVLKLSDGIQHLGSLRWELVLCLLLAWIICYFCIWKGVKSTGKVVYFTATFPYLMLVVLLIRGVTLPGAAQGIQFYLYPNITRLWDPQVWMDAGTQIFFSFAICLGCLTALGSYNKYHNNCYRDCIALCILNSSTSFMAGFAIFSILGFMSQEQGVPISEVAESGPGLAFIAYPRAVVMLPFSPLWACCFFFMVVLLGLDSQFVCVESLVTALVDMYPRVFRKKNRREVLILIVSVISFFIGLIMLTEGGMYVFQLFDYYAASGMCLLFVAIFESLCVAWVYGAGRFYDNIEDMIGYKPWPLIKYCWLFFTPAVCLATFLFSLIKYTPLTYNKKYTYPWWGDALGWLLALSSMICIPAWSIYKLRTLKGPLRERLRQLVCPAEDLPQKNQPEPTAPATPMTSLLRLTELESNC
Method: as §2

[5] = inhibitor at 100 μM, remaining reuptake

Chain of horse plasma butyrylcholinesterase (eqBuChE) (P81908 whole entry): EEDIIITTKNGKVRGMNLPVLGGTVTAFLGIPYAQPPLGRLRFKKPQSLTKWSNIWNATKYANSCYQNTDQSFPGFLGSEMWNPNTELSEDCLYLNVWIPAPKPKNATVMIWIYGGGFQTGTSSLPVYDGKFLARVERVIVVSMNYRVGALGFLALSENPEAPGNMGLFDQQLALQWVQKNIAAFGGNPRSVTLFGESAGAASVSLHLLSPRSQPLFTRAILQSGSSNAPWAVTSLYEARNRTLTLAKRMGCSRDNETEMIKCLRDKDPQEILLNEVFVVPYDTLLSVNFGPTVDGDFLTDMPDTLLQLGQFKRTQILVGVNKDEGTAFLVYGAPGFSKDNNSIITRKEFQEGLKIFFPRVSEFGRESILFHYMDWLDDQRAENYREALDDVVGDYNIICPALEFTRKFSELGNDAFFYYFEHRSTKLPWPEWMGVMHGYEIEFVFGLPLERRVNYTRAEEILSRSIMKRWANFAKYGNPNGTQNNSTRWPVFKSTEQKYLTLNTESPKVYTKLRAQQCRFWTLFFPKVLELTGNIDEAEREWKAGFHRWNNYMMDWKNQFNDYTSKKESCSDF

| SMILES | IC50 [1] | pIC50 (+/−SEM) mGAT1 (mGAT1) | IC50 [2] | pIC50 (+/−SEM) mGAT4 (mGAT4) | pIC50 (+/−SEM) mGAT2 (mGAT2; GABA reuptake) | IC50 [3] | inhibition at 10 µM [4] | pIC50 (+/−SEM) mGAT3 (mGAT3) | inhibition at 10 µM ([1]; 10 μM inhibitor concentration, read-out: eqBuChE percent inhibition of enzyme) | percentage of [3H]GABA reuptake retained, mGAT4 (mGAT4) | inhibition at 1 µM [3] | percentage of [3H]GABA reuptake retained, mGAT3 (mGAT3) | percentage of [3H]GABA reuptake retained, mGAT1 (mGAT1; [5]) | IC50 (mGAT4) | IC50 (mGAT2; GABA reuptake, read-out: pIC50 (+/−SEM) mGAT2 (converted)) | inhibition at 50 µM [2] | percentage of [3H]GABA reuptake retained, mGAT2 (mGAT2; [5]) |
| --- | --- | --- | --- | --- | --- | --- | --- | --- | --- | --- | --- | --- | --- | --- | --- | --- | --- |
| O[C@H](CNCc1ccccc1)[C@H](Cc1ccccc1)NC1c2ccccc2-c2ccccc21 [Compound 1, (2R,3S)-3-((9H-fluoren-9-yl)amino)-1-(benzylamino)-4-phenylbutan-2-ol] | 627 nM | 4.96 | 10100 nM | 5.11 +/− 0.01 | 5.01 +/− 0.08 | 196 nM | 82.5% | 5.15+/− 0.07 |  |  |  |  |  |  |  |  |  |
| CC(C)(C)c1cccc(CNC[C@@H](O)[C@H](Cc2ccccc2)NC2c3ccccc3-c3ccccc32)c1 [Compound 3, (2R,3S)-3-((9H-fluoren-9-yl)amino)-1-((3-(tert-butyl)benzyl)amino)-4-phenylbutan-2-ol] |  | 4.83 | 6350 nM |  | 4.58 |  | 90.9% | 5.05 +/− 0.05 | 78.2% | 56% | 68% |  |  |  |  |  |  |
| COc1cccc(CNC[C@H](O)[C@H](Cc2ccccc2)NC2c3ccccc3-c3ccccc32)c1 [Compound 6, (2S,3S)-3-((9H-fluoren-9-yl)amino)-1-((3-methoxybenzyl)amino)-4-phenylbutan-2-ol] | 2200 nM | 5.15 | 2250 nM | 5.15 +/− 0.034 | 4.92 +/− 0.14 |  | 93.3% |  |  |  | 67.7% | 66% |  |  |  |  |  |
| COc1ccccc1CNC[C@H](O)[C@H](Cc1ccccc1)NC1c2ccccc2-c2ccccc21 [Compound 7, (2S,3S)-3-((9H-fluoren-9-yl)amino)-1-((2-methoxybenzyl)amino)-4-phenylbutan-2-ol] | 278 nM | 5.20 | 7230 nM | 5.21 +/− 0.04 | 4.88 +/− 0.07 | 268 nM | 86.7% |  |  |  |  | 65% |  |  |  |  |  |
| O[C@@H](CNCC1CCCCC1)[C@H](Cc1ccccc1)NC1c2ccccc2-c2ccccc21 [Compound 11, (2S,3S)-3-((9H-fluoren-9-yl)amino)-1-((cyclohexylmethyl)amino)-4-phenylbutan-2-ol] | 955 nM |  | 8600 nM |  | 4.97 |  | 78.6% | 4.94 |  | 59% | 76.5% |  | 54% |  |  |  |  |
| O=C(CC1c2ccccc2-c2ccccc21)N[C@@H](Cc1ccccc1)[C@@H](O)CNCc1ccccc1 [Compound 17, N-((2S,3S)-4-(benzylamino)-3-hydroxy-1-phenylbutan-2-yl)-2-(9H-fluorene-9-yl)acetamide] | 1760 nM | 4.85 | 11500 nM |  |  |  | 42.5% | 4.93 |  |  | 66.4% |  |  | 7240 nM | 15800 nM |  |  |
| CC(C)(C)c1ccc(CNC[C@H](O)[C@H](Cc2ccccc2)NC(=O)CC2c3ccccc3-c3ccccc32)cc1 [Compound 19, N-((2S,3S)-4-((4-(tert-butyl)benzyl)amino)-3-hydroxy-1-phenylbutan-2-yl)-2-(9H-fluoren-9-yl)acetamide] | 3020 nM | 4.90 |  |  |  |  | 86.7% | 4.90 |  |  | 77.1% |  |  | 15500 nM |  | 78.3% | 114% |
| O=C(CC1c2ccccc2-c2ccccc21)N[C@@H](Cc1ccccc1)[C@H](O)CNCc1cccc(C(F)(F)F)c1 [Compound 21, 2-(9H-fluoren-9-yl)-N-((2S,3R)-3-hydroxy-1-phenyl-4-((3-(trifluoromethyl)benzyl)-amino)butan-2-yl)acetamide] | 2020 nM |  | 2120 nM |  |  |  | < 10% |  |  |  | 54.3% |  |  |  |  |  |  |
| CC(C)(NC[C@@H](O)[C@H](Cc1ccccc1)NC(=O)C1c2ccccc2-c2ccccc21)c1ccccc1 [Compound 24, N-((2S,3R)-3-hydroxy-1-phenyl-4-((2-phenylpropan-2-yl)amino)butan-2-yl)-9H-fluorene-9-carboxamide] | 2840 nM |  | 5150 nM |  |  |  | 61% |  |  |  | 21.4% |  |  |  |  |  |  |
| CC(C)(NC[C@@H](O)[C@H](Cc1ccccc1)NC(=O)CC1c2ccccc2-c2ccccc21)c1ccccc1 [Compound 25, 2-(9H-fluoren-9-yl)-N-((2S,3R)-3-hydroxy-1-phenyl-4-((2-phenylpropan-2-yl)amino)-butan-2-yl)acetamide] | 1270 nM |  | 4960 nM |  |  |  | 63% |  |  |  | 71.7% |  |  |  |  |  |  |
| CC(C)(C)CNC[C@@H](O)[C@H](Cc1ccccc1)NC(=O)C1c2ccccc2-c2ccccc21 [Compound 26, N-((2S,3R)-3-hydroxy-4-(neopentylamino)-1-phenylbutan-2-yl)-9H-fluorene-9-carboxamide] | 1090 nM |  |  |  |  |  | 39.5% |  |  |  | 61.1% |  |  |  |  | 54.5% |  |
